According to patent publication US20060188995A1, “Process, composition and kit for providing a stable whole blood calibrator/control” (priority 2005, published 2006):

How the values were obtained:
[1] = tested on: glycolysis in whole blood; assay: Glucose stability of whole blood specimens with added D,L glyceraldehyde, YSI glucose concentration over weeks of storage; assay type: cell-based; details: about 2° C. to about 10° C.
Description: FIG. 4 illustrates the YSI glucose concentration (mg/dL) of blood specimens containing EDTA at various final concentrations of a mixture of D,L glyceraldehydes at 0.0, 1.0, 5.0, 10.0 and 20.0 mM, obtained over 4 weeks of real time testing at about 2° C. to about 10° C.; FIG. 5 illustrates the YSI 2300 (reference analyzer) glucose concentration (mg/dL) of blood specimens treated at various concentrations of D,L glyceraldehyde over 3 weeks at about 2° C. to about 10° C., wherein the control is an untreated blood sample; In one method, a sample containing a cellular component, (i.e. RBCs, WBCs) is collected into a microfuge or vacuum tube, e.g. VACUTAINER®, (such as supplied by Becton, Dickinson and Company, Franklin Lakes, N.J.). The initial concentration of glucose in the sample can be […]. The vacuum tube may contain any appropriate anticoagulant agent known to one of ordinary skill, including oxalate, EDTA, citrate, heparin or combination thereof, to form a suspension. If used, the anticoagulant may be added together simultaneously, or sequentially, to the sample. The resulting suspension is incubated at about 2° C. to about 30° C. and allowed to undergo glycolysis until the glucose level is less than about 20 mg/dL. […]

red blood cells = assay: RBC treatment with glyceraldehyde and subsequent removal; glucose recovery of RBCs recombined with plasma and glucose; assay type: cell-based, human; details: RBCs treated with 20, 35, and 50 mM for 72 hours at 2 to 10° C., washed, after 34 days, FIG. 6
Description: FIG. 6 illustrates the YSI 2300 (reference analyzer) glucose concentration (mg/dL) of blood specimens at various concentrations of D,L glyceraldehyde respectively over 4 weeks at about 2° C. to about 10° C., wherein the control is untreated blood sample. Red blood cells were treated, washed and recombined with plasma and glucose. RBC Treatment w Glyceraldehyde & Subsequent Removal • 1) Employ fresh whole blood collected in standard anticoagulant (i.e. EDTA, heparin, sodium citrate) from a healthy adult population. Alternative blood sources may include bovine, avian, porcine, equine, goat, or alligator. • 2) Allow sufficient time for the natural enzymatic breakdown of glucose to occur (i.e. glycolysis). Deplete glucose concentration to less than about 20 mg/dl. Preferred storage at 2°-30°C. • 3) Separate RBC cellular component from plasma fraction via gravity settling and or centrifugation. If desired, the removed plasma fraction may be retained for reintroduction. • 4) Wash RBC cellular component with isotonic phosphate buffered saline solution (3×). Exchange diluent via centrifugation is preferred (15 minutes @ 1500 rpm (650× g). • 5) Adjust RBC concentration to approximately 4.0×10^6/mm^3±0.25×10^6/mm^3. […]

[2] = tested on: glycolysis in whole blood; details: final concentration about 0.9 to 20 mM; testing within 16 hours; cited from earlier work

For O=CC(O)CO (racemic) [D,L glyceraldehyde, 2,3-dihydroxypropanal], the “loss of YSI glucose concentration” value ([1]; 20.0 mM D,L glyceraldehyde in EDTA blood, at 4 weeks, FIG. 4) was “less than 10%”, the “loss of YSI glucose concentration” value ([1]; 30.0 mM D,L glyceraldehyde in EDTA blood, glucose burned down then added back, at 3 weeks, FIG. 5) was “less than 3.5%” and the “loss in glucose recovery” value (red blood cells) was less than 5%. The “glucose loss of stabilized whole blood sample” value [2] was “negligible glucose loss”.
